Data taken from patent US20260158031A1, “AROMATIC HETEROCYCLIC COMPOUND, PHARMACEUTICAL COMPOSITION CONTAINING THE SAME, AND USE THEREOF” (HANG ZHOU YUHONG PHARMATECH CO., LTD., priority 2021, published 2026).

Columns and labels:
JAK3 kinase = molecular target: T1, JAK3 kinase (Homo sapiens, UniProt P52333); experiment: Mobility shift assay, in vitro JAK3 kinase inhibitory activity; type: biochemical
T1 sequence (P52333 1-1124): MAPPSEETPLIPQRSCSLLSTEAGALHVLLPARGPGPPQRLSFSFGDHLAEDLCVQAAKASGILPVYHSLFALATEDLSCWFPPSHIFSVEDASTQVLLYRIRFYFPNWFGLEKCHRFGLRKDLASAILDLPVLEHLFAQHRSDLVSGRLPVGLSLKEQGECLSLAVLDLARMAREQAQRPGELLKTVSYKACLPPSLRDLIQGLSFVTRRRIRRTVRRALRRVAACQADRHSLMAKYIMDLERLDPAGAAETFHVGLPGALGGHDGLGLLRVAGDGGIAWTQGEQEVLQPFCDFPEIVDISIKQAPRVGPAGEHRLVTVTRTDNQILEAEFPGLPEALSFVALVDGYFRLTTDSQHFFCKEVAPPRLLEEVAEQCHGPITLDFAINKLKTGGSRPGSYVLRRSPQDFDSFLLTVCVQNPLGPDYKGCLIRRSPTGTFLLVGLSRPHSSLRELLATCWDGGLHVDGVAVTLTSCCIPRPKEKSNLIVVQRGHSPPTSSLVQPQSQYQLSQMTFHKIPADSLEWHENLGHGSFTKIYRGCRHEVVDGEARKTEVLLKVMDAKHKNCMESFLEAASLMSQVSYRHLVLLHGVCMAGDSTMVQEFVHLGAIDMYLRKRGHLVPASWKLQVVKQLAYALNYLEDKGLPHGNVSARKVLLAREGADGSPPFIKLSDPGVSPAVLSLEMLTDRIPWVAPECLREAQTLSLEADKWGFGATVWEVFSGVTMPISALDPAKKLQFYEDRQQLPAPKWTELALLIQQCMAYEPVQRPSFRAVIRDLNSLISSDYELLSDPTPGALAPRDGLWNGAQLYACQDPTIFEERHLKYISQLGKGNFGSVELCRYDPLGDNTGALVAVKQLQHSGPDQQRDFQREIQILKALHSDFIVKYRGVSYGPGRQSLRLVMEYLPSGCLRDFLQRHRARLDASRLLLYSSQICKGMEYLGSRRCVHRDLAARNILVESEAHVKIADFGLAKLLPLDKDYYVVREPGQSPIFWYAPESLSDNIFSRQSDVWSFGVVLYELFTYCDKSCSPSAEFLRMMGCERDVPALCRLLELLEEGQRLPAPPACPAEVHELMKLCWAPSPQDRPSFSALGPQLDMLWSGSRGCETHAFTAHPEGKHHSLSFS
Description: A Mobility shift assay was adopted to detect compounds to be tested (see list below) for in vitro inhibitory activity on the enzyme activity of JAK3 kinase.
The compound was dissolved in 100% DMSO to formulate a 10 mM stock solution, which was stored in a −20° C. refrigerator with protection from light.
The compounds were diluted with gradients into solutions with a final concentration of 100 times in a 384-well plate. Then 250 nL was transferred to a 384 reaction plate with Echo550 for later use. 250 nL of 100% DMSO was added into the negative control well and the positive control well respectively. • (3) A kinase solution with a final concentration of 2.5 times was formulated with the 1× Kinase buffer. • (4) The compound wells and the positive control wells were added with 10 μL of the kinase solution with the final concentration of 2.5 times respectively; the negative control wells were added with 10 μL of the 1× Kinase buffer. • (5) The wells were centrifuged at 1,000 rpm for 30 seconds, mixed well by shaking, and then incubated at room temperature for 10 minutes. • (6) A mixed solution of ATP and Kinase substrate 22 with a final concentration of 25/15 times was formulated with a 1× Kinase buffer. • (7) The compound wells, positive control wells and negative control wells of the 384 reaction plate were respectively added with 15 μL of a mixed solution of ATP and the substrate at the final concentration of 25/15 times to start the reaction. • (8) The 384-well plate was centrifuged at 1,000 rpm for 30 seconds, mixed well by shaking, and then incubated at room temperature for 30 minutes. • (9) 30 μL of a detection termination solution was added to stop the kinase reaction, centrifuged at 1,000 rpm for 30 seconds, and mixed well by shaking. • (10) The conversion rate was read with Caliper EZ Reader.
% Inhibition=(Conversion %_max−Conversion %_sample)/(Conversion %_max−Conversion %_min)×100 (1) Calculation Equation
Among them: Conversion %_sample was the conversion rate reading of the sample; Conversion %_min was the mean value of the negative control wells, representing the conversion rate reading of the wells without enzyme activity; Conversion % max was the mean value of the positive control wells, representing the conversion rate reading of the wells without compound inhibition; and % Inhibition represented the percentage inhibition rate.
• by taking the log value of concentration as the X axis and taking the percent inhibition rate as the Y axis, a dose-response curve is fitted by adopting the log (inhibitor) vs. response-Variable slope of the analysis software GraphPad Prism 5, so as to obtain the IC50 value of each compound on the enzyme activity. The calculation equation was Y=Bottom+ (Top−Bottom)/(1+10^((Log IC50−X)*HillSlope)).

[1] = system: p-STAT5 under stimulation with IL-15 in PBMCs; experiment: IL-15 stimulated hPBMC p-STAT5 ELISA; type: cell-based; conditions: Homo sapiens, PBMC, 45 min compound, 30 min IL-15, ELISA
Description: Based on the mechanism of the JAK-STAT pathway, the cytokine IL-15 was adopted to stimulate hPBMC cells, and the downstream STAT5 phosphorylation level was taken as a detection indicator to evaluate the effect of the compound on the JAK-STAT pathway.
• 1. Seeding plate for PBMC cell counting: 90 μL of PBMCs were seeded in a 96-well plate (PBMC cell density: 80,000/well). • 2. Treatment of compound to be tested: after the cells were seeded on the plate, administration treatment was performed immediately. The drug to be tested was 5 μL/well (with final concentration of 1, 0.5, 0.1, 0.05, 0.01, and 0.005 μM), and the plate was incubated in a 37° C. incubator for 45 min. • 3. Stimulation with cytokine IL-15: the cells were stimulated with 5 μL of IL-15 and incubated at 37° C. for 30 min. • 4. Protein sample collection: the cells were collected in a centrifuge tube and centrifuged for 5 min. The supernatant was discarded after the centrifuging, and the cells were lysed with 1× Cell Extraction Buffer PTR. • 5. p-STAT5 detection: detection was conducted according to the requirements of a ELISA kit.
Experimental results: IC50 values of compounds on p-STAT5 under stimulation with IL-15 in PBMCs

JAK1 = JAK1 (Homo sapiens, UniProt P23458); experiment: Kinase selectivity experiment, mobility shift assay, JAK1; type: biochemical; conditions: Example 137
Description: (§1) The compounds were diluted with gradients into solutions with a final concentration of 100 times in a 384-well plate. Then 250 nL was transferred to a 384 reaction plate with Echo550 for later use. […]

JAK2 = JAK2 (Homo sapiens, UniProt O60674); experiment: Kinase selectivity experiment, mobility shift assay, JAK2; type: biochemical; conditions: Example 137
Description: as §1

TYK2 = TYK2 (Homo sapiens, UniProt P29597); experiment: Kinase selectivity experiment, mobility shift assay, TYK2; type: biochemical; conditions: Example 137
Description: as §1

[2] = system: DSS-induced mouse inflammatory bowel disease model; experiment: DSS-induced mouse inflammatory bowel disease model; type: in vivo; conditions: female C57BL/6 mice, 5% DSS, 50 mg/kg once a day, day 8, compared with model group, FIG. 3
Description: Objective of Experiment: to test the immunosuppressive activity of YZ001052 in a DSS-induced mouse inflammatory bowel disease model. PF-06651600 was used as a positive control compound.
50 g of DSS was weighed, added with 1,000 mL of sterile water, formulated into a 5% DSS solution, and filtered with a 0.22 μm filter membrane. From day 0, the blank group was given drinking water without DSS, and the other experimental groups were given drinking water containing 5% DSS. All mice were sacrificed on day 8. After the experiment was ended, the colorectum was collected, and photographed, and its length was measured for statistical analysis.

SRBC mouse model = experiment: SRBC-induced delayed type hypersensitivity (DTH) in mice; type: in vivo; conditions: male Balb/c mice, 100 mg/kg by gavage once a day, day 0 to day 6, FIG. 1
Description: PF-06651600 was used as a positive control compound.
Drug preparation: the compound was weighed and added with a 0.5% CMC-Na solution to prepare a drug suspension (with an administration dose of 10 mg/mL).
Induction of delayed type hypersensitivity (DTH) and administration: 30 male Balb/c mice were weighed and randomly divided into 6 groups according to body weight, with 5 mice in each group. The experimental period lasted for 7 days in total. On day 0, the mice were subcutaneously injected with sheep red blood cells (SRBCs) for sensitization. From day 0, the mice were administrated with 100 mg/kg by gavage (once a day) until day 6. On day 6, SRBCs were injected into the right hind foot pad of the mice for excitation. On day 7 of the experiment, measurements were conducted, photographs were taken, and the experiment was ended.
Pharmacodynamic detection indicators of disease models: the detection and observation indicators were the degree of redness and swelling and detected thicknesses of paw pads of the mice in the model group as induced by SRBC. The thickness of the right paw was measured as the baseline before the SRBC injection excitation on day 6. At the end of the experiment […], the thickness of the right paw was measured again, and the difference in thickness of the paw before and after the second injection was calculated.
Statistical processing: experimental data was expressed as mean±standard deviation (Mean±SD). All data was statistically analyzed using a T-test. P<0.05 was considered to be statistically different.

[3] = system: radiation-induced lung injury mouse model; experiment: Mouse model of acute radiation-induced lung injury; type: in vivo; conditions: female C57BL/6 mice, 22.5 Gy whole lung irradiation, 30 mg/kg q.d, 3 weeks after modeling
Description: 18 female C57BL/6 mice were randomly divided into 3 groups, namely a blank control group, a group treated with irradiation alone, and a group intervened with irradiation+drug YZ001052 (30 mg/kg q.d), with 6 mice in each group.
The mice were anesthetized by intraperitoneal injection of 1% pentobarbital sodium, and were subjected to a single whole lung irradiation at 22.5 Gy, with 220 KV of X-rays by using a small animal radiation research platform (SARRP). After the irradiation was completed, the mice were fed routinely.
3 weeks after modeling, the mice were anesthetized and dissected. The lung tissue was exposed, the left lung was ligated, an open tracheotomy was performed, the lung was lavaged with cold PBS, and the bronchoalveolar lavage fluid (BALF) was collected and subjected to refrigerated centrifugation at 4° C.
The supernatant was collected, and detected for the content of the inflammatory factor TNF-α by ELISA.
The cell pellet of the alveolar lavage fluid was resuspended in 200 μL PBS and used for counting of white blood cells (WBCs).

[4] = system: collagen-induced mouse arthritis model; experiment: Collagen-induced mouse arthritis model (mCIA); type: in vivo, DBA/1J mice; conditions: female DBA/1J CIA mice, 50 mg/kg once a day, FIG. 2; for arthritis scores: compared to the model group
Excerpt: Objective of Experiment: to test the immunosuppressive activity of YZ001052 in a mCIA model. PF-06651600 was used as a positive control compound.
Complete and incomplete Freund's adjuvants were mixed with a chicken type II collagen solution in equal proportions to form an emulsifier. Except for the blank control group, on Day 0, a mixture of a complete Freund's adjuvant and the chicken type II collagen solution was subcutaneously injected into the tail roots and thigh roots of the mice, with 100 μL being injected subcutaneously at the tail root of each mouse; and 50 μL being injected subcutaneously at each of the two thigh roots of each mouse (primary immunization). On day 21, the mice were subcutaneously injected with 200 μL of a mixture of an incomplete Freund's adjuvant and the chicken type II collagen solution as a booster injection (second immunization). […] Measurement of paw thickness: the thicknesses of the left and right hind feet of the mice were measured with a vernier caliper to serve as the paw swelling degree and recorded, and the detection frequency was once every 3 days.

[5] = mobility shift assay, Example 136

Sequence of JAK1 (P23458 whole entry, species assumed): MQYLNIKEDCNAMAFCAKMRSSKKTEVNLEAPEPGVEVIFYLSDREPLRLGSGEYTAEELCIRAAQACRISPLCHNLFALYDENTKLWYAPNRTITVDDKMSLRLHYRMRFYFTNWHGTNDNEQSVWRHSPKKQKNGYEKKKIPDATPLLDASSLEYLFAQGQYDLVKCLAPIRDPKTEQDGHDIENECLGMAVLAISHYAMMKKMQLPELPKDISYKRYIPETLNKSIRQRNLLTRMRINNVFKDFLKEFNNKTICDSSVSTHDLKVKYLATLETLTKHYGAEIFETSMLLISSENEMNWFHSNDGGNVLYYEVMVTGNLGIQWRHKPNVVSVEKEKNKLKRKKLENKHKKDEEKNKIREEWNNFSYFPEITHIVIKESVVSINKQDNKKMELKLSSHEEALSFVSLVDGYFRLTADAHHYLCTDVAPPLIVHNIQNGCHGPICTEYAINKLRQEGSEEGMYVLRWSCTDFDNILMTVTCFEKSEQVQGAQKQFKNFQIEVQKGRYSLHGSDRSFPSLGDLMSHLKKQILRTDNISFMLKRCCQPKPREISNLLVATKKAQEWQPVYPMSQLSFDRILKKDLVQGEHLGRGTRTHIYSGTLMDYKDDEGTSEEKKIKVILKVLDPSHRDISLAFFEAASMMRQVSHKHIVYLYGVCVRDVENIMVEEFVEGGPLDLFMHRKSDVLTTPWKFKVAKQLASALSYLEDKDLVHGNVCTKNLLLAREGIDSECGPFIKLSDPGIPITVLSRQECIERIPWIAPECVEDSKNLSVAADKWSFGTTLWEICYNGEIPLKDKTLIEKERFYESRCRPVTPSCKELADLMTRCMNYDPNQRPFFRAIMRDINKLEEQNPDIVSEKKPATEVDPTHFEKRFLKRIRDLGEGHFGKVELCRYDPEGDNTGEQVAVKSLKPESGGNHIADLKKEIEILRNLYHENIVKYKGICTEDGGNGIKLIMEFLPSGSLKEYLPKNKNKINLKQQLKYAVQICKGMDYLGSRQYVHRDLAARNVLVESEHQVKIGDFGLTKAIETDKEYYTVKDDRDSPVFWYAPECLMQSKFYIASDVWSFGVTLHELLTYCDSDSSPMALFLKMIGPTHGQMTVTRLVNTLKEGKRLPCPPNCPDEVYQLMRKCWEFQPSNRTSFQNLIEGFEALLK
Sequence of JAK2 (O60674 whole entry, species assumed): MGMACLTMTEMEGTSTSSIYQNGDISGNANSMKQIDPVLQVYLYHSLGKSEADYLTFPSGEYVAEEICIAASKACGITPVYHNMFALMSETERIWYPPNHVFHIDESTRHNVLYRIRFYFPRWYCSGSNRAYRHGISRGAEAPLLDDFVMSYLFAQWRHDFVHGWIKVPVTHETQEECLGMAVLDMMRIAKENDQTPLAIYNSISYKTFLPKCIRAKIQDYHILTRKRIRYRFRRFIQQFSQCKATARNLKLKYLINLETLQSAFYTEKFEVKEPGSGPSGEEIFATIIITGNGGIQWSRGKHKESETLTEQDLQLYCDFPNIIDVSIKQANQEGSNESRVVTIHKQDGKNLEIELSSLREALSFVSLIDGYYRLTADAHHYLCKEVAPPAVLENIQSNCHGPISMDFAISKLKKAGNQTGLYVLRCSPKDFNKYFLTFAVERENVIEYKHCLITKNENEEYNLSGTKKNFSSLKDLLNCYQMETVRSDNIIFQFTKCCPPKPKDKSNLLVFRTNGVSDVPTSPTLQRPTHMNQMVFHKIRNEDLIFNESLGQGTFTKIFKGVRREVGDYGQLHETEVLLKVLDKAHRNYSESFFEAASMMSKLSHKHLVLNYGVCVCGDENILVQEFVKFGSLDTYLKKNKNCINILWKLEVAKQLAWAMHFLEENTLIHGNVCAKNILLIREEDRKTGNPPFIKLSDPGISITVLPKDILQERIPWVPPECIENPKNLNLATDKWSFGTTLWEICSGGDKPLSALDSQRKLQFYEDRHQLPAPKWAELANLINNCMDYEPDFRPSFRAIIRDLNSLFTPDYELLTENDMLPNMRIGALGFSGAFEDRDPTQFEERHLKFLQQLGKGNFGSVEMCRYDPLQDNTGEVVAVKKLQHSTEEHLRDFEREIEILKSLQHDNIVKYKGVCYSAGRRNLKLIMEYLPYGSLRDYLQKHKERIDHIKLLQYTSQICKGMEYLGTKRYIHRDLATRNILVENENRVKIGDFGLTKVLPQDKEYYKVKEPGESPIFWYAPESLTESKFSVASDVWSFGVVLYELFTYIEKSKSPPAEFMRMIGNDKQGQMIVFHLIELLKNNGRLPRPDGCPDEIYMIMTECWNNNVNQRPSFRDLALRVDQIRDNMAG
Sequence of TYK2 (P29597 whole entry, species assumed): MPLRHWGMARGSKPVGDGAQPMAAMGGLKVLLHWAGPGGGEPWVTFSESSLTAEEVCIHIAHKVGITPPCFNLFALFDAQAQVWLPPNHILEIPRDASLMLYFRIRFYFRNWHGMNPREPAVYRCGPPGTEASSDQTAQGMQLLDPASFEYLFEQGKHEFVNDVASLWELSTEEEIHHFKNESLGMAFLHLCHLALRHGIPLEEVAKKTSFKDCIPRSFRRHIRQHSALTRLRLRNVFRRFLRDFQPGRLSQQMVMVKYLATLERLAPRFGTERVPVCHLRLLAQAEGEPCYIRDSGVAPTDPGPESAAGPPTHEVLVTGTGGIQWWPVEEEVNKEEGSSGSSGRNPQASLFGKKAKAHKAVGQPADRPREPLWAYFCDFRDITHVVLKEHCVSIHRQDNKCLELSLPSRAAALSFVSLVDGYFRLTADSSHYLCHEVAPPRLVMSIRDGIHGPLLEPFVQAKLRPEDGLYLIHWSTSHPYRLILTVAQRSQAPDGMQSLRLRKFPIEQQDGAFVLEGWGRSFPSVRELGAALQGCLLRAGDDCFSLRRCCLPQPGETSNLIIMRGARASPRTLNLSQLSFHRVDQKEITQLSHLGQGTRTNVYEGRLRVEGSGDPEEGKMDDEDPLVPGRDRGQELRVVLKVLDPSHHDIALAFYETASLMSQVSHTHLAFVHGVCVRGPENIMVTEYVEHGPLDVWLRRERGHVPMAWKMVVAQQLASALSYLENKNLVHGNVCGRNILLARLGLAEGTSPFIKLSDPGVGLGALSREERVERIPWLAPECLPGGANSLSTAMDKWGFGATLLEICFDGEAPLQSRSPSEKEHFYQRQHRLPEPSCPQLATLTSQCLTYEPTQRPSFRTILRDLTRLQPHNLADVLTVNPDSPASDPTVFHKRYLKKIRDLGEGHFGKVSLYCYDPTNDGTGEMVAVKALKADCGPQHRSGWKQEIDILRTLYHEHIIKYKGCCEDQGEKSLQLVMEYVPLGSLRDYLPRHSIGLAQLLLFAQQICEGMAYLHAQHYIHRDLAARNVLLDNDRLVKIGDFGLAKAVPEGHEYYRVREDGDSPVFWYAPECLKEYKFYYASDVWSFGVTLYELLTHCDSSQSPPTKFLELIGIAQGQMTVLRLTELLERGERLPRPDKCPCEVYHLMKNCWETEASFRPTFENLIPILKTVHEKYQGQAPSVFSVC

Row | Structure (SMILES) | IC50 (JAK3 kinase; [5]) | IC50 [1] | IC50 (JAK1) | IC50 (JAK2) | IC50 (TYK2) | immunosuppressive effect on SRBC-induced delayed type hypersensitivity (right paw thickness) (SRBC mouse model) | swelling of the paws [4] | arthritis scores [4] | further results
1 | C=C(F)C(=O)N1Cc2c(-c3ccnc4[nH]ccc34)cnn2C[C@H]1CCS(C)(=O)=O [YZ001075] | 1.2 nM | 31.7 nM |  |  |  |  |  |  | 
2 | C[C@@H]1Cn2ncc(-c3ccnc4[nH]ccc34)c2CN1C(=O)/C=C/CN(C)C [YZ001005] |  |  | > 10000 nM | > 10000 nM | > 10000 nM |  |  |  | IC50 (JAK3 kinase; selectivity table, Example 137): 16 nM
3 | C=CC(=O)N1CCc2c(c(-c3ccnc4[nH]ccc34)nn2C)C1 [YZ001052] |  |  |  |  |  | significant immunosuppressive effects | improved to varying degrees | significantly reduced | length of the colorectum [2]: significantly increased; TNF-α level in the alveolar lavage fluid ([3]; ELISA, FIG. 4): good inhibitory effect; number of white blood cells (inflammatory cell infiltrates) in the alveolar lavage fluid ([3]; FIG. 5): significantly reduce
4 | C=CC(=O)N1CCc2[nH]nc(-c3ccnc4[nH]ccc34)c2C1 [YZ001065] | 0.7 nM | 26.3 nM |  |  |  | significant immunosuppressive effects |  |  | 
5 | C=CC(=O)N1C[C@H](Nc2ncnc3[nH]ccc23)CC[C@@H]1C [PF-06651600, reference compound] |  | 85 nM |  |  |  |  | improved to varying degrees | significantly reduced | 
6 | C=CC(=O)N1Cc2c(-c3ccnc4[nH]ccc34)cnn2C[C@H]1C [YZ001001] |  |  | > 10000 nM | > 10000 nM | > 10000 nM |  |  |  | 
